Experimental data taken from patent publication EP4215522A1, “DERIVATIVES OF 4-CHROMONE AS INHIBITORS OF THE RDRP POLYMERASE OF SARS-COV-2 VIRUS AND METHOD FOR THE PREPARATION THEREOF” (priority 2022, dated 2023).
Like-named read-outs stand apart in the source and are kept apart here.

Assays:
[1] = biological target: RNA-dependent RNA polymerase (SARS-CoV-2) (Severe acute respiratory syndrome coronavirus 2, UniProt P0DTD1); experiment: in vitro enzymatic assay of RdRp activity (AlphaScreen detection); type: biochemical
[2] = Microsomal stability in mice; type: in vitro ADME; conditions: mouse microsomes
Experimental: (§1) The solubility and stability of some compounds of the invention and known compounds were evaluated.

Kinetic solubility = type: physicochemical
Experimental: as §1

Plasma stability in mice = type: in vitro ADME; conditions: mouse plasma
Experimental: as §1

[3] = RdRp reaction 37°C, 60 minutes, duplicate, 30 minutes preincubation, 1% DMSO
[4] = compound at 25 µM, read-out: % inhib. (25 µM)
[5] = compound at 100 µM, read-out: % inhib. (100 µM)

SMILES | IC50 (µM) [1, 3] | inhibition at 25 µM [1, 4] | inhibition at 100 µM [1, 5] | Microsomal stability in mice t1/2 [2] | Kinetic solubility Sk (Kinetic solubility) | IC50 [1, 3] | Plasma stability in mice t1/2 (Plasma stability in mice) | inhibition at 25 µM ([1]; read-out: % inhibition 25 µM) | inhibition at 100 µM ([1]; read-out: % inhibition 100 µM)
O=c1cc(C(CCCC(F)(F)F)c2ccc(O)c(O)c2)oc2cccc(O)c12 (stereo not shown) [(13d), 2-(1-(3,4-dihydroxyphenyl)-5,5,5-trifluoropentyl)-5-hydroxy-4H-chromen-4-one] | NO inhibition | 8% | 10% |  |  |  |  |  | 
O=c1cc(CCc2ccc(O)c(O)c2)oc2cccc(O)c12 [(20), 2-(3,4-dihydroxyphenethyl)-5-hydroxy-4H-chromen-4-one] |  | 80% | 97% | >1 h | 67 µM | 5.8 ± 0.7 µM | >2 h |  | 
O=C(OCCc1ccc(O)c(O)c1)c1cc(=O)c2c(O)cccc2o1 [(24c), 3,4-dihydroxyphenethyl-5-hydroxy-4-oxo-4H-chromen-2-carboxylate] |  | 36% | 72% |  |  | 44.1 ± 1.1 µM |  |  | 
O=c1c(O)c(-c2ccc(O)c(O)c2)oc2cc(O)cc(O)c12 [quercetin, reference compound] |  |  |  | >1 h | 16 µM |  | 0.12 h |  | 
CCCCC(c1ccc(O)c(O)c1)c1cc(=O)c2c(O)cccc2o1 (stereo not shown) [(13c), 2-(1-(3,4-dihydroxyphenyl)pentyl)-5-hydroxy-4H-chromen-4-one] |  | 16% | 37% |  |  |  |  |  | 
O=c1c(OCCCO)c(-c2ccc(O)c(O)c2)oc2cc(O)cc(O)c12 [(9c), 2-(3,4-dihydroxyphenyl)-5,7-dihydroxy-3-(3-hydroxypropoxy)-4H-chromen-4-one] |  | 71% | 95% | 1 h | 231 µM | 5.6 ± 0.1 µM | 1.5 h |  | 
O=c1cc(-c2ccc3c(c2)OC(F)(F)O3)oc2cc(O)cc(O)c12 [reference compound] |  |  |  |  |  |  |  | 0% | 51%
O=C(Oc1ccc(O)c(O)c1)c1cc(=O)c2c(O)cccc2o1 [(24b), 3,4-dihydroxyphenyl-5-hydroxy-4-oxo-4H-chromen-2-carboxylate] |  | 95% | 94% |  | <1 µM | 2 ± 1 µM |  |  | 
O=C(NCCNC(=O)c1cc(=O)c2c(O)cccc2o1)c1ccc(O)c(O)c1 [(28), N-(2-(3,4-dihydroxybenzamide)ethyl)-5-hydroxy-4-oxo-4H-chromen-2-carboxamide] |  | 79% | 100% |  |  | 15.9 ± 1.1 µM |  |  | 
O=c1c(OCCO)c(-c2ccc(O)c(O)c2)oc2cc(O)cc(O)c12 [(9b), 2-(3,4-dihydroxyphenyl)-5,7-dihydroxy-3-(2-hydroxyethoxy)-4H-chromen-4-one] |  | 83% | 100% | >1 h | 167 µM | 6.1 ± 1 µM | >2 h |  | 
O=c1cc(Cc2ccc(O)c(O)c2)oc2cccc(O)c12 [(13a), 2-(3,4-dihydroxybenzyl)-5-hydroxy-4H-chromen-4-one] |  | 78% | 99% | >1 h | 63 µM | 8.5 ± 0.7 µM | >2 h |  | 
O=C(Nc1ccc(O)c(O)c1)c1cc(=O)c2c(O)cccc2o1 [(24a), N-(3,4-dihydroxyphenyl)-5-hydroxy-4-oxo-4H-chromen-2-carboxamide] |  | 80% | 100% | 1 h | 65 µM | 7.1 ± 0.8 µM | 1.38 ± 0.217 h |  | 
CCCCOc1c(-c2ccc(O)c(O)c2)oc2cc(O)cc(O)c2c1=O [(9a), 3-butoxy-2-(3,4-dihydroxyphenyl)-5,7-dihydroxy-4H-chromen-4-one] |  | 52% | 98% | >1 h | 156 µM | 5.3 ± 1 µM | >2 h |  | 
O=c1cc(/C=C/c2ccc(O)c(O)c2)oc2cccc(O)c12 [(18), (E)-2-(3,4-dihydroxystyryl)-5-hydroxy-4H-chromen-4-one] |  | 54% | 94% |  | <1 µM | 7 ± 1.2 µM |  |  | 
O=c1cc(-c2ccc(O)c(O)c2)oc2cc(O)cc(O)c12 [luteolin, reference compound] |  |  |  | >1 h | 21 µM |  | >2 h |  | 
O=C(NCCNC(=S)Nc1ccc(O)c(O)c1)c1cc(=O)c2c(O)cccc2o1 [(31), N-(2-(3-(3,4-dihydroxyphenyl)thiourea)ethyl)-5-hydroxy-4-oxo-4H-chromen-2-carboxamide] |  | 86% | 94% |  | <1 µM | 3.4 ± 1.2 µM |  |  | 
CCCc1c(-c2ccc(O)c(O)c2)oc2cc(O)cc(O)c2c1=O [(5b), 2-(3,4-dihydroxyphenyl)-5,7-dihydroxy-3-propyl-4H-chromen-4-one] |  | 72% | 98% |  | 13 µM | 8.8 ± 0.7 µM |  |  | 
COc1cccc2oc(-c3ccc(O)cc3C)cc(=O)c12 [reference compound] |  |  |  |  |  |  |  | 3% | 34%
O=c1cc(-c2ccc(O)c(O)c2)oc2cc(F)cc(O)c12 [reference compound] |  |  |  |  |  |  |  | 0% | 25%
CC(c1ccc(O)c(O)c1)c1cc(=O)c2c(O)cccc2o1 (stereo not shown) [(13b), 2-(1-(3,4-dihydroxyphenyl)ethyl)-5-hydroxy-4H-chromen-4-one] |  | 65% | 100% | >1 h | 165 µM | 4.1 ± 1.4 µM | >2 h |  | 
Cc1c(-c2ccc(O)c(O)c2)oc2cc(O)cc(O)c2c1=O [(5a), 2-(3,4-dihydroxyphenyl)-5,7-dihydroxy-3-methyl-4H-chromen-4-one] |  | 94% | 99% |  | 32 µM | 4.3 ± 1.1 µM |  |  | 
